One assay addresses BRD4 (BDI_K57-E168) (Homo sapiens (Human), UniProt O60885). Put plainly: TR-FRET bromodomain binding assay, BRD4 first bromodomain. The following applies: His-tagged BD1, Alexa647-labeled probe 100 nM. The procedure, abridged:
(§1)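 Probe displacement, TR-FRET: 8 nM His-BRD4 domain, 1 nM Eu-anti-His, Alexa647 BET-inhibitor probe 100 nM (BDI)/30 nM (BDII); 20 mM Na phosphate pH 6.0, 50 mM NaCl, 1 mM DTT; cpd 50 μM-0.85 nM, 3-fold; 1 h RT; Ex 340/[…]; IC50 → Ki.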
On the technique in general: Time-resolved FRET reads energy transfer from a long-lived donor to a nearby acceptor.

For a further assay, the target named is BRD4 (BDII_E352-M457) (Homo sapiens (Human), UniProt O60885). Put plainly: TR-FRET bromodomain binding assay, BRD4 second bromodomain. The note with it: His-tagged BD2, Alexa647-labeled probe 30 nM. The gist of the method: as §1

pKi: −log10 of the molar value.

As a reminder, the pKi is the Ki on a negative log10 scale, so that one unit is a factor of ten. `COC1CCC(C(=O)N2CCC(Nc3ccc(S(C)(=O)=O)cc3-c3cn(C)c(=O)c4[nH]ccc34)CC2)CC1` (stereo not shown) [Example 94, 4-[2-({1-[(4-methoxycyclohexyl)carbonyl]piperidin-4-yl}amino)-5-(methylsulfonyl)phenyl]-6-methyl-1,6-dihydro-7H-pyrrolo[2,3-c]pyridin-7-one]: the pKi was 7.52 at BRD4 (BDI_K57-E168) and 7.70 on BRD4 (BDII_E352-M457).

For `COCC(=O)N1CCC(Nc2ccc(S(C)(=O)=O)cc2-c2cn(C)c(=O)c3[nH]ccc23)CC1` [Example 95, 4-[2-{[1-(methoxyacetyl)piperidin-4-yl]amino}-5-(methylsulfonyl)phenyl]-6-methyl-1,6-dihydro-7H-pyrrolo[2,3-c]pyridin-7-one], the pKi was 7.66 at BRD4 (BDI_K57-E168) and 7.80 at BRD4 (BDII_E352-M457).

With `CN1CCN(CC(=O)N2CCC(Nc3ccc(S(C)(=O)=O)cc3-c3cn(C)c(=O)c4[nH]ccc34)CC2)CC1` [Example 96, 6-methyl-4-[2-({1-[(4-methylpiperazin-1-yl)acetyl]piperidin-4-yl}amino)-5-(methylsulfonyl)phenyl]-1,6-dihydro-7H-pyrrolo[2,3-c]pyridin-7-one], the pKi was 7.77 on BRD4 (BDI_K57-E168) and 7.68 at BRD4 (BDII_E352-M457).

Consider `Cn1cc(-c2cc(S(C)(=O)=O)ccc2NC2CCN(C(=O)CN3CCCC3)CC2)c2cc[nH]c2c1=O` [Example 97, 6-methyl-4-[5-(methylsulfonyl)-2-{[1-(pyrrolidin-1-ylacetyl)piperidin-4-yl]amino}phenyl]-1,6-dihydro-7H-pyrrolo[2,3-c]pyridin-7-one], for which the figures for the pKi on BRD4 (BDI_K57-E168) and at BRD4 (BDII_E352-M457) were 8.00 and 7.55, respectively.

Take `COCCOCC(=O)N1CCC(Nc2ccc(S(C)(=O)=O)cc2-c2cn(C)c(=O)c3[nH]ccc23)CC1` [Example 98, 4-[2-({1-[(2-methoxyethoxy)acetyl]piperidin-4-yl}amino)-5-(methylsulfonyl)phenyl]-6-methyl-1,6-dihydro-7H-pyrrolo[2,3-c]pyridin-7-one]: the pKi is 7.85 at BRD4 (BDI_K57-E168) and 7.70 at BRD4 (BDII_E352-M457).

`Cn1cc(-c2cc(S(C)(=O)=O)ccc2NC2CCN(C(=O)CCN3CCOCC3)CC2)c2cc[nH]c2c1=O` [Example 99, 6-methyl-4-[5-(methylsulfonyl)-2-({1-[3-(morpholin-4-yl)propanoyl]piperidin-4-yl}amino)phenyl]-1,6-dihydro-7H-pyrrolo[2,3-c]pyridin-7-one]: the negative logarithm of the Ki (pKi) on BRD4 (BDI_K57-E168) was 7.92; on BRD4 (BDII_E352-M457), 7.55.

Turning to `Cn1cc(-c2cc(S(C)(=O)=O)ccc2NC2CCN(S(=O)(=O)Cc3ccccc3)CC2)c2cc[nH]c2c1=O` [Example 101, 4-[2-{[1-(benzylsulfonyl)piperidin-4-yl]amino}-5-(methylsulfonyl)phenyl]-6-methyl-1,6-dihydro-7H-pyrrolo[2,3-c]pyridin-7-one], the pKi on BRD4 (BDI_K57-E168) was 8.22; on BRD4 (BDII_E352-M457), 8.24.

Consider `CC(=O)Nc1ccc(S(=O)(=O)N2CCC(Nc3ccc(S(C)(=O)=O)cc3-c3cn(C)c(=O)c4[nH]ccc34)CC2)cc1` [Example 103, N-{4-[(4-{[2-(6-methyl-7-oxo-6,7-dihydro-1H-pyrrolo[2,3-c]pyridin-4-yl)-4-(methylsulfonyl)phenyl]amino}piperidin-1-yl)sulfonyl]phenyl}acetamide], for which the pKi is 8.39 on BRD4 (BDI_K57-E168) and 8.31 at BRD4 (BDII_E352-M457).

For the compound `COc1ccc(S(=O)(=O)N2CCC(Nc3ccc(S(C)(=O)=O)cc3-c3cn(C)c(=O)c4[nH]ccc34)CC2)cc1` [Example 104, 4-[2-({1-[(4-methoxyphenyl)sulfonyl]piperidin-4-yl}amino)-5-(methylsulfonyl)phenyl]-6-methyl-1,6-dihydro-7H-pyrrolo[2,3-c]pyridin-7-one], the negative logarithm of the Ki (pKi) at BRD4 (BDI_K57-E168) was 8.34; on BRD4 (BDII_E352-M457) it was 8.40.

For `Cn1cc(-c2cc(S(C)(=O)=O)ccc2NC2CCN(S(=O)(=O)c3cccc(C#N)c3)CC2)c2cc[nH]c2c1=O` [Example 105, 3-[(4-{[2-(6-methyl-7-oxo-6,7-dihydro-1H-pyrrolo[2,3-c]pyridin-4-yl)-4-(methylsulfonyl)phenyl]amino}piperidin-1-yl)sulfonyl]benzonitrile], the negative logarithm of the Ki (pKi) on BRD4 (BDI_K57-E168) was 8.14; on BRD4 (BDII_E352-M457), 7.77.

As for `Cn1cc(-c2cc(S(C)(=O)=O)ccc2NC2CCN(S(=O)(=O)c3cccs3)CC2)c2cc[nH]c2c1=O` [Example 106, 6-methyl-4-[5-(methylsulfonyl)-2-{[1-(thiophen-2-ylsulfonyl)piperidin-4-yl]amino}phenyl]-1,6-dihydro-7H-pyrrolo[2,3-c]pyridin-7-one], the negative-log Ki (pKi) at BRD4 (BDI_K57-E168) was 8.10; at BRD4 (BDII_E352-M457) it was 8.19.

As for `Cn1cc(-c2cc(S(C)(=O)=O)ccc2N[C@H]2CC[C@H](NCc3cccs3)CC2)c2cc[nH]c2c1=O` [Example 107, 6-methyl-4-[5-(methylsulfonyl)-2-({trans-4-[(thiophen-2-ylmethyl)amino]cyclohexyl}amino)phenyl]-1,6-dihydro-7H-pyrrolo[2,3-c]pyridin-7-one], the pKi at BRD4 (BDI_K57-E168) was 8.52; on BRD4 (BDII_E352-M457), 8.05.

For `CC(=O)Nc1ccc(CN[C@H]2CC[C@H](Nc3ccc(S(C)(=O)=O)cc3-c3cn(C)c(=O)c4[nH]ccc34)CC2)cc1` [Example 108, N-(4-{[(trans-4-{[2-(6-methyl-7-oxo-6,7-dihydro-1H-pyrrolo[2,3-c]pyridin-4-yl)-4-(methylsulfonyl)phenyl]amino}cyclohexyl)amino]methyl}phenyl)acetamide], the pKi was 8.47 on BRD4 (BDI_K57-E168) and 8.25 at BRD4 (BDII_E352-M457).

Regarding `Cn1cc(-c2cc(S(C)(=O)=O)ccc2N[C@H]2CC[C@H](NCc3ccc(F)cc3F)CC2)c2cc[nH]c2c1=O` [Example 109, 4-[2-({trans-4-[(2,4-difluorobenzyl)amino]cyclohexyl}amino)-5-(methylsulfonyl)phenyl]-6-methyl-1,6-dihydro-7H-pyrrolo[2,3-c]pyridin-7-one], the pKi at BRD4 (BDI_K57-E168) was 8.80; on BRD4 (BDII_E352-M457), 8.08.

Consider `Cn1cc(-c2cc(S(C)(=O)=O)ccc2N[C@H]2CC[C@H](NCc3ccc4ccccc4c3)CC2)c2cc[nH]c2c1=O` [Example 110, 6-methyl-4-[5-(methylsulfonyl)-2-({trans-4-[(naphthalen-2-ylmethyl)amino]cyclohexyl}amino)phenyl]-1,6-dihydro-7H-pyrrolo[2,3-c]pyridin-7-one], for which the pKi at BRD4 (BDI_K57-E168) was 8.96; at BRD4 (BDII_E352-M457) it was 8.66.

As for `COCCN[C@H]1CC[C@H](Nc2ccc(S(C)(=O)=O)cc2-c2cn(C)c(=O)c3[nH]ccc23)CC1` [Example 111, 4-[2-({trans-4-[(2-methoxyethyl)amino]cyclohexyl}amino)-5-(methylsulfonyl)phenyl]-6-methyl-1,6-dihydro-7H-pyrrolo[2,3-c]pyridin-7-one], the pKi on BRD4 (BDI_K57-E168) is 8.34; at BRD4 (BDII_E352-M457) it was 7.92.

Regarding `CSCCCN[C@H]1CC[C@H](Nc2ccc(S(C)(=O)=O)cc2-c2cn(C)c(=O)c3[nH]ccc23)CC1` [Example 112, 6-methyl-4-{2-[(trans-4-{[3-(methylsulfanyl)propyl]amino}cyclohexyl)amino]-5-(methylsulfonyl)phenyl}-1,6-dihydro-7H-pyrrolo[2,3-c]pyridin-7-one], the pKi is 8.27 on BRD4 (BDI_K57-E168) and 8.00 on BRD4 (BDII_E352-M457).

`Cn1cc(-c2cc(S(C)(=O)=O)ccc2N[C@H]2CC[C@H](NCc3ccc(Cl)cc3)CC2)c2cc[nH]c2c1=O` [Example 113, 4-[2-({trans-4-[(4-chlorobenzyl)amino]cyclohexyl}amino)-5-(methylsulfonyl)phenyl]-6-methyl-1,6-dihydro-7H-pyrrolo[2,3-c]pyridin-7-one]: the figures for the negative logarithm of the Ki (pKi) on BRD4 (BDI_K57-E168) and at BRD4 (BDII_E352-M457) were 8.60 and 8.15, respectively.

Take `Cn1cc(-c2cc(S(C)(=O)=O)ccc2Oc2ccc(F)cc2F)c2cc(CN3CCN(c4nccs4)CC3)[nH]c2c1=O` [Example 114, 4-[2-(2,4-difluorophenoxy)-5-(methylsulfonyl)phenyl]-6-methyl-2-{[4-(1,3-thiazol-2-yl)piperazin-1-yl]methyl}-1,6-dihydro-7H-pyrrolo[2,3-c]pyridin-7-one]: the results for the negative logarithm of the Ki (pKi) at BRD4 (BDI_K57-E168) and at BRD4 (BDII_E352-M457) were 8.16 and 7.09, respectively.

In the case of `Cn1cc(-c2cc(S(C)(=O)=O)ccc2Oc2ccc(F)cc2F)c2cc(CN3CCN(C4CC4)CC3)[nH]c2c1=O` [Example 115, 2-[(4-cyclopropylpiperazin-1-yl)methyl]-4-[2-(2,4-difluorophenoxy)-5-(methylsulfonyl)phenyl]-6-methyl-1,6-dihydro-7H-pyrrolo[2,3-c]pyridin-7-one], the results for the pKi at BRD4 (BDI_K57-E168) and at BRD4 (BDII_E352-M457) were 8.28 and 6.92, respectively.

With `Cn1cc(-c2cc(S(C)(=O)=O)ccc2Oc2ccc(F)cc2F)c2cc(CN3CCN(C4CCOCC4)CC3)[nH]c2c1=O` [Example 116, 4-[2-(2,4-difluorophenoxy)-5-(methylsulfonyl)phenyl]-6-methyl-2-{[4-(tetrahydro-2H-pyran-4-yl)piperazin-1-yl]methyl}-1,6-dihydro-7H-pyrrolo[2,3-c]pyridin-7-one], the figures for the negative-log Ki (pKi) on BRD4 (BDI_K57-E168) and at BRD4 (BDII_E352-M457) were 8.48 and 7.01, respectively.

Turning to `CCS(=O)(=O)c1ccc(Oc2ccc(F)cc2F)c(-c2cn(C)c(=O)c3[nH]c(-c4ccnn4-c4ccccc4)cc23)c1` [Example 117, 4-[2-(2,4-difluorophenoxy)-5-(ethylsulfonyl)phenyl]-6-methyl-2-(1-phenyl-1H-pyrazol-5-yl)-1,6-dihydro-7H-pyrrolo[2,3-c]pyridin-7-one], the negative logarithm of the Ki (pKi) at BRD4 (BDI_K57-E168) is 8.22; at BRD4 (BDII_E352-M457) it was 8.47.

Turning to `CCS(=O)(=O)c1ccc(Oc2ccc(F)cc2F)c(-c2cn(C)c(=O)c3[nH]c(-c4cccnc4N4CCOCC4)cc23)c1` [Example 118, 4-[2-(2,4-difluorophenoxy)-5-(ethylsulfonyl)phenyl]-6-methyl-2-[2-(morpholin-4-yl)pyridin-3-yl]-1,6-dihydro-7H-pyrrolo[2,3-c]pyridin-7-one], the figures for the pKi at BRD4 (BDI_K57-E168) and at BRD4 (BDII_E352-M457) were 7.00 and 6.44, respectively.

These data come from patent US9957263B2, “Bromodomain inhibitors” (AbbVie Inc., priority 2013, dated 2018).
